Values of other authors in patent publication US20120149888A1, “SYNTHESIS OF ARA-2'-O-METHYL-NUCLEOSIDES, CORRESPONDING PHOSPHORAMIDITES AND OLIGONUCLEOTIDES INCORPORATING NOVEL MODIFICATIONS FOR BIOLOGICAL APPLICATION IN THERAPEUCTICS, DIAGNOSTICS, G- TETRAD FORMING OLIGONUCLEOTIDES AND APTAMERS” (priority 2009, published 2012).
“Also recorded” adds a separate entry of the source. Like-named read-outs stand apart in the source and are kept apart here.

Tests used:
[1] = rhesus monkey, in vivo
P815/FU = conditions: 5-Fluorouracil-resistant P815/FU
L1210/CA = conditions: 1β-D-Arabinofuranosylcytosine-resistant L1210/CA
[2] = system: ara-C-resistant neoplasms
[3] = system: explants of intact rat colonic mucosa
Ehrlich ascites (AZU 1) = conditions: 6-Azauracil-resistant Ehrlich ascites (AZU 1)
[4] = system: Ehrlich ascites resistant to 5-fluorodeoxyuridine (FUdR); conditions: 5-Fluorodeoxyuridine-resistant Ehrlich ascites
mouse leukemia L1210 = conditions: L1210 cells
[5] = system: human nasopharyngeal KB cells
[6] = system: 36 human tumor cell lines
[7] = system: 11 human tumor xenografts; conditions: 11 xenografts
Ehrlich ascites (EAC-R2) = conditions: 6-Methyl thiopurine ribonucleoside-resistant Ehrlich ascites (EAC-R2)
[8] = system: nucleoside transport (thymidine uptake); conditions: for Ki: read-out: Ki value for inhibition of thymidine uptake
[9] = system: equilibrative NBMPR-sensitive nucleoside transporter (es); conditions: growth-inhibitory concentrations
[10] = in vivo
ovarian cancer = conditions: previously treated patients
[11] = 6-Mercaptopurine-resistant L1210/MP(III)
[12] = Thioguanine-resistant L1210 TG/R
[13] = 5-Fluorouracil-resistant P815-E176

## Nc1ncn([C@@H]2O[C@H](CO)[C@@H](O)[C@@H]2O)c(=O)n1 [AAC, Arabinosyl-5-azacytosine]
[1]
  CSF clearance exceeds the rate of CSF bulk flow: 5 fold
  greater CSF drug exposure, intrathecal or intraventricular versus systemic: 50 fold
[1]; 200 mg/kg
  area under the CSF concentration x time curve, intraventricular 10 mg versus intravenous 200 mg/kg: fifty fold
  peak CSF concentration, intraventricular 10 mg versus intravenous 200 mg/kg: one hundred
[1]; icv or intrathecal, 10 mg
  CSF clearance: 0.2 mL/min

## Nc1nc(=O)n([C@@H]2O[C@H](CO)[C@@H](O)[C@@H]2O)cc1F [Ara-FC, 1β-D-arabinofuranosyl-5-fluorocytosine]
P815/FU
  Response to chemotherapeutic drugs: Same as parent line: Ara-FC
P815/FU; listed as ara-FC
  Response to chemotherapeutic drugs: Same as parent line: retained the same sensitivity

## O=NN(CCCl)C(=O)NCCCl [BCNU, 1,3-bis(2-chloroethyl)-1-nitrosourea]
L1210/CA
  Response to chemotherapeutic drugs: Same as parent line: BCNU

## COC(COC(N)=O)C1=C(N2CC2)C(=O)C(C)=C(N2CC2)C1=O (stereo not shown) [Carbazilquinone]
L1210/MP(III); mouse, in vivo
  Response to chemotherapeutic drugs: collaterally sensitive: collateral sensitivity; also recorded: Carbazilquinone
L5178Y/ara-C; in vivo
  Response to chemotherapeutic drugs: Same as parent line: Carbazilquinone
[2]; in vivo
  cross-resistance of ara-C-resistant neoplasms to the drug: no cross-resistance

## Nc1nc(N)c2c(Cl)c(CNc3ccc(C(=O)N[C@@H](CC(=O)O)C(=O)O)cc3)ccc2n1 [Chlorasquin]
L1210/MP(III); mouse, in vivo
  Response to chemotherapeutic drugs: collaterally sensitive: Chlorasquin

## O=c1[nH]c(=O)n([C@H]2C[C@H](O)[C@@H](CO)O2)cc1F [Compound 5-FUdR]
[3]
  incorporation of tritiated TdR into DNA: not altered
  levels of tritiated deoxyuridine: reduced

## O=c1cnn([C@@H]2O[C@H](CO)[C@@H](O)[C@H]2O)c(=O)[nH]1 [Compound 6-Azauridine, 6-Azauridine]
Ehrlich ascites (AZU 1)
  Response to chemotherapeutic drugs: Cross-resistant: 6-Azauridine
Ehrlich ascites (AZU 1); listed as 6-azauridine
  Response to chemotherapeutic drugs: Cross-resistant: cross-resistant

## O=c1[nH]c(=O)n([C@H]2C[C@H](O)[C@@H](CO)O2)cc1C(F)(F)F [Compound F3TdR, 5-trifluoromethyl-2′-deoxyuridine]
[4]
  Response to chemotherapeutic drugs: Cross-resistant: cross-resistant; also recorded: F3TdR

## O=P1(N(CCCl)CCCl)NCCCO1 (stereo not shown) [Cytoxan]
L1210 TG/R; mouse, in vivo
  Response to chemotherapeutic drugs: Same as parent line: no change in response; also recorded: Cytoxan
P815-E176; in vivo
  Response to chemotherapeutic drugs: Same as parent line: no change in response; also recorded: Cytoxan
L5178Y/ara-C; in vivo
  Response to chemotherapeutic drugs: Same as parent line: Cytoxan

## CN(Cc1cnc2nc(N)[nH]c(=O)c2n1)c1c(Cl)cc(C(=O)NC(CCC(=O)O)C(=O)O)cc1Cl (stereo not shown) [DCM, 3′,5′-dichloromethopterin]
L1210/CA
  Response to chemotherapeutic drugs: Same as parent line: DCM

## C#C[C@@]1(O)[C@@H](CO)O[C@@H](n2ccc(=O)[nH]c2=O)[C@@H]1O [EUrd, 1-(3-C-ethynyl-beta-D-ribo-pentofuranosyl)uracil]
Mouse leukemia L1210
  IC50: 130 nM
[5]
  IC50: 29 nM
[6]
  1050 values: nanomolar to micromolar range
[7]
  human tumors with potent inhibition: 8 of 11

## Nc1ncnc2c([C@@H]3O[C@H](CO)[C@@H](O)[C@H]3O)[nH]nc12 [Formycin]
Ehrlich ascites (EAC-R2)
  Response to chemotherapeutic drugs: Cross-resistant: Formycin

## Nc1n[nH]c(N)n1 [Guanazole]
L1210/ara-C; in vivo
  Response to chemotherapeutic drugs: Same as parent line: Guanazole TSC
[2]; in vivo
  cross-resistance of ara-C-resistant neoplasms to the drug: no cross-resistance

## CCOC(=O)NO [Hydroxycarbamic Acid ethyl ester]
L1210/CA
  Response to chemotherapeutic drugs: Same as parent line: Hydroxycarbamic

## N[C@@H](Cc1ccc(N(CCCl)CCCl)cc1)C(=O)O [L-PAM, L-phenylalanine mustard methanol]
L1210 TG/R; mouse, in vivo
  Response to chemotherapeutic drugs: collaterally sensitive: L-PAM
P815-E176; in vivo
  Response to chemotherapeutic drugs: collaterally sensitive: L-PAM

## Cc1c(CNc2ccc(C(=O)N[C@@H](CC(=O)O)C(=O)O)cc2)ccc2ncnc(N)c12 [Methasquin]
L1210/MP(III); [11]
  Response to chemotherapeutic drugs: collaterally sensitive: Methasquin

## CN(Cc1cnc2nc(N)nc(N)c2n1)c1ccc(C(=O)N[C@@H](CCC(=O)O)C(=O)O)cc1 [Methotrexate]
L1210/MP(III); [11]
  Response to chemotherapeutic drugs: collaterally sensitive: collaterally sensitive
L1210 TG/R; [12]
  Response to chemotherapeutic drugs: Same as parent line: Methotrexate
L1210 TG/R; Thioguanine-resistant L1210 TG/R, listed as methotrexate
  Response to chemotherapeutic drugs: Same as parent line: not altered
P815-E176; [13]
  Response to chemotherapeutic drugs: Same as parent line: Methotrexate
L5178Y/ara-C; L5178Y/ara-C
  Response to chemotherapeutic drugs: Same as parent line: Methotrexate

## COCC(COc1nc(N2CCCCC2)c2nc(OCC(COC)OC)nc(N3CCCCC3)c2n1)OC (stereo not shown) [NU3059]
L1210 cells; analogue 10 microM
  growth inhibitory activity of the TS inhibitor CB3717: enhance

## COc1ccc(CNc2nc(N(CCO)CCO)nc3c(NCc4ccc(OC)cc4)nc(N(CCO)CCO)nc23)cc1 [NU3076]
[8]; AGP 5 mg ml(−1)
  inhibition of thymidine uptake in the presence of AGP: not significantly affected
[8]
  Ki: 100 nM
L1210 cells
  FU cytotoxicity: significant potentiation
  reduction of the LC90 of nolatrexed: > threefold

## NC(=S)NN=Cc1ccccn1 [TSC, pyridine-2-carboxaldehyde thiosemicarbazone]
L1210/ara-C; L1210/ara-C (Schabel et al., 1971)
  Response to chemotherapeutic drugs: Same as parent line: Guanazole TSC
[2]; several other ara-C-resistant neoplasms
  cross-resistance of ara-C-resistant neoplasms to the drug: no cross-resistance

## Cc1cn([C@H]2C[C@H](O)[C@@H](CO)O2)c(=O)[nH]c1=O [TdR, Thymidine]
[9]
  expression of es: no significant effect

## S=P(N1CC1)(N1CC1)N1CC1 [Thio-TEPA, triethylenethiophosphoramide]
L1210 TG/R; mouse, in vivo
  Response to chemotherapeutic drugs: collaterally sensitive: Thio-TEPA
P815-E176; in vivo
  Response to chemotherapeutic drugs: Cross-resistant: cross-resistance; also recorded: Thio-TEPA

## Nc1nc2nc[nH]c2c(=S)[nH]1 [Thioguanine]
P815-E176; [13]
  Response to chemotherapeutic drugs: Same as parent line: Thioguanine

## C[C@@]1(CO)[C@H](O)CC[C@@]2(C)[C@H]1CC[C@H]1C[C@@H]3C[C@@]12CC[C@]3(O)CO [aphidicolin]
[9]
  expression of es: no significant increase

## [N-]=[N+]=CC(=O)OC[C@H](N)C(=O)O [azaserine]
L1210/MP(III); [11]
  Response to chemotherapeutic drugs: collaterally sensitive: collaterally sensitive
L1210 TG/R; [12]
  Response to chemotherapeutic drugs: Same as parent line: not altered; also recorded: azaserine
P815-E176; [13]
  Response to chemotherapeutic drugs: Same as parent line: Azaserine

## OCCN(CCO)c1nc(N2CCCCC2)c2nc(N(CCO)CCO)nc(N3CCCCC3)c2n1 [dipyridamole]
[8]
  Ki: 280 nM
[3]
  incorporation of tritiated TdR into DNA: reduced
L1210 cells; absence of salvageable thymidine
  reduction of the LC90 of nolatrexed: > threefold

## CO[C@@]12[C@H](COC(N)=O)C3=C(C(=O)C(C)=C(N)C3=O)N1C[C@@H]1N[C@@H]12 [mitomycin C]
L1210/MP(III); mouse, in vivo
  Response to chemotherapeutic drugs: collaterally sensitive: collaterally sensitive

## NC(=O)c1csc([C@@H]2O[C@H](CO)[C@@H](O)[C@H]2O)n1 [tiazofurin, 2-B-D-Ribofuranosylthiazole-4-Carboxamide]
[10]
  antitumor activity: No antitumor activity was observed
  dose limiting toxicities: pericarditis and clinical symptoms suggestive of a more generalized serositis
  maximally tolerated dose: 1650 mg/m2
  patients with sustained depletion of guanine nucleotide pools: 1 of 6

## Neocarzinostatin
L1210/MP(III); mouse, in vivo
  Response to chemotherapeutic drugs: collaterally sensitive: collateral sensitivity; also recorded: Neocarzinostatin

## gemcitabine-cisplatin
Ovarian cancer
  response, doublets: 53%

B1: L-asparaginase: L-asparaginase, enzyme drug (protein, UniProt P00805 23-348, looked up)
L-asparaginase 2: LPNITILATGGTIAGGGDSATKSNYTVGKVGVENLVNAVPQLKDIANVKGEQVVNIGSQDMNDNVWLTLAKKINTDCDKTDGFVITHGTDTMEETAYFLDLTVKCDKPVVMVGAMRPSTSMSADGPFNLYNAVVTAADKASANRGVLVVMNDTVLDGRDVTKTNTTDVATFKSVNYGPLGYIHNGKIDYQRTPARKHTSDTPFDVSKLNELPKVGIVYNYANASDLPAKALVDAGYDGIVSAGVGNGNLYKSVFDTLATAAKTGTAVVRSSRVPTGATTQDAEVDDAKYGFVASGTLNPQKARVLLQLALTQTKDPQQIQQIFNQY
L5178Y/ara-C; L5178Y/ara-C
  Response to chemotherapeutic drugs: Cross-resistant: L-asparaginase
  Response to chemotherapeutic drugs: collaterally sensitive: collaterally sensitive
